For 1 molecule, IC50 and solubility results are on record in patent US9732060B2, “Aminotriazine derivative and pharmaceutical composition comprising the same” (Shionogi & Co., Ltd., priority 2013, dated 2017).

In one data set the target is human P2X3 receptor (Homo sapiens (Human), UniProt P56373). The data set can be described thus: Evaluation of human P2X3 receptor inhibitory activity in the presence of human serum albumin (HSA). It counts as cell-based. The note with it: in the presence of 1% HSA (final concentration). The procedure: Stably expressing cell line (C6BU-1 cell transfected with human P2X3 receptor gene (GenBank accession number Y07683; was used. The cells were seeded in a 96-well microtiter plate at a concentration of 8000 cells/well and cultured in the medium (7.0% fetal bovine serum, 7.0% horse serum, 1% antibiotic and antifungal, and 2.0% glutamine in DMEM) for one day at 37° C. under 5% carbon dioxide atmosphere. The medium was replaced with 4 μM Fluo-3-AM solution (20 mM HEPES, 137 mM NaCl, 5.37 mM KCl, 0.9 mM MgCl2, 1.26 mM CaCl2, 5.6 mM D-glucose, 2.5 mM probenecid, 0.5% BSA, and 0.04% Pluronic F-127, pH 7.5) and incubated at 37° C. under 5% dioxide carbon atmosphere for one hour. The plate was washed with washing buffer (20 mM HEPES, 137 mM NaCl, 5.27 mM KCl, 0.9 mM MgCl2, 1.26 mM CaCl2, 5.6 mM D-glucose, 2.5 mM probenecid, pH 7.5), and each well was added with 40 μL of this buffer. The plate was placed in High-Throughput Screening System FDSS 3000 (Hamamatsu Photonics K.K.). Measurement of fluorescence intensity by FDSS 3000 was started, and 40 μL of DMSO solutions containing 1% HSA (final concentrations) different concentrations of the test compound as prepared by dilution with dilution buffer (20 mM HEPES, 137 mM NaCl, 5.27 mM KCl, 0.9 mM MgCl2, 1.26 mM CaCl2, 5.6 mM D-glucose, 2.5 mM probenecid, 0.1% Pluronic F-127, pH 7.5) were dispensed to each well through the built-in automatic dispenser. Five minutes after, 50 nM ATP solution (50 μL) prepared by dilution with the dilution buffer was dispensed through the built-in automatic dispenser, and the measurement of fluorescence intensity was continued for 4 min. For each well, the specific maximum fluorescence intensity was calculated as the ratio of the maximum fluorescence intensity after addition of the ATP solution to the fluorescence intensity at the starting of the measurement. […] FDSS software (Hamamatsu Photonics K.K.) was used for calculation of the specific maximum fluorescence intensity. IC50 was calculated using Microsoft Excel (Microsoft Corporation) and XLfit (idbs Ltd.)

Data set [1] in a line: Solubility test (1% DMSO, artificial intestinal juice pH 6.8). Type of data set: physicochemical. To be noted: artificial intestinal juice pH 6.8 with 1% DMSO, 25 °C, fassgf or other biorelevant, kinetic from dmso stock, artificial intestinal juice pH 6.8, 25 degrees Celsius, read-out: Solubulity.
A further data set addresses Rat P2X3 receptor (Rattus norvegicus (Rat), UniProt P49654). The data set can be described thus: Evaluation of rat P2X3 receptor inhibitory activity in the presence of rat serum albumin (RSA). It counts as cell-based. To be noted: read-out: ratP2X3 + RSA IC50. As to the method:
Rat P2X3 receptor gene (GenBank accession number NM_031075) was expressed in C6BU-1 cell. The C6BU-1 cells were seeded in a 96-well micro titer plate at a concentration of 2500 cells/well and cultured in the medium (7.0% fetal bovine serum, 7.0% horse serum, and 1% antibiotic and antifungal in DMEM) for one day at 37° C. under 5% carbon dioxide atmosphere. The plasmid was transfected into the cells using transfection reagent FuGENE6 (Promega). The transfected cells were cultured in the medium for one day at 37° C. under 5% carbon dioxide atmosphere. The medium was replaced with 4 μM Fluo-4-AM solution (pH 7.5) containing 20 mM HEPES, 137 mM NaCl, 5.27 mM KCl, 0.9 mM MgCl2, 1.26 mM CaCl2, 5.6 mM D-glucose, 2.5 mM probenecid, 10% RSA, and 0.08% Pluronic F-127, and incubated at 37° C. under 5% dioxide carbon atmosphere for one hour. The plate was washed with washing buffer (20 mM HEPES, 137 mM NaCl, 5.27 mM KCl, 0.9 mM MgCl2, 1.26 mM CaCl2, 5.6 mM D-glucose, 2.5 mM probenecid, pH 7.5), and each well was added with 40 μL of this buffer. The plate was placed in High-Throughput Screening System FDSS 3000 (Hamamatsu Photonics K.K.). Measurement of fluorescence intensity by FDSS 3000 was started, and 40 μL of DMSO solutions containing 1% RSA (final concentrations) and different concentrations of the test compound as prepared by dilution with dilution buffer (20 mM HEPES, 137 mM NaCl, 5.27 mM KCl, 0.9 mM MgCl2, 1.26 mM CaCl2, 5.6 mM D-glucose, 2.5 mM probenecid, 0.1% Pluronic F-127, pH 7.5) were dispensed to each well through the built-in automatic dispenser. Five minutes after, 50 nM ATP solution (50 μL) prepared by dilution with the dilution buffer was dispensed through the built-in automatic dispenser, and the measurement of fluorescence intensity was continued for 4 min. For each well, the specific maximum fluorescence intensity was calculated as the ratio of the maximum fluorescence intensity after addition of the ATP solution to the fluorescence intensity at the starting of the measurement. […] FDSS software (Hamamatsu Photonics K.K.) was used for calculation of the specific maximum fluorescence intensity. IC50 was calculated using Microsoft Excel (Microsoft Corporation) and XLfit (idbs Ltd.).

pIC50: −log10 of the molar value. Some results are limits rather than exact numbers.

Sequence of human P2X3 receptor (P56373 whole entry): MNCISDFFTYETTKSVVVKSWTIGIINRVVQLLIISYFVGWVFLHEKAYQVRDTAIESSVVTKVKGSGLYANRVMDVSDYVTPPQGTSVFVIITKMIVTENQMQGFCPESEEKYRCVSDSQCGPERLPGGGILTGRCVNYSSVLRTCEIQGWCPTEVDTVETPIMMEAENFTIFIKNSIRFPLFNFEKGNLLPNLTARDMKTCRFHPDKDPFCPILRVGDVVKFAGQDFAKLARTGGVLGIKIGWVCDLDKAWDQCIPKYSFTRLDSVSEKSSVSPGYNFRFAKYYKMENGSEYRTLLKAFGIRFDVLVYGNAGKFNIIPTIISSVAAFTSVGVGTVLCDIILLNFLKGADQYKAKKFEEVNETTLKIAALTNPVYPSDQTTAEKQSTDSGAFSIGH
Sequence of Rat P2X3 receptor (P49654 whole entry): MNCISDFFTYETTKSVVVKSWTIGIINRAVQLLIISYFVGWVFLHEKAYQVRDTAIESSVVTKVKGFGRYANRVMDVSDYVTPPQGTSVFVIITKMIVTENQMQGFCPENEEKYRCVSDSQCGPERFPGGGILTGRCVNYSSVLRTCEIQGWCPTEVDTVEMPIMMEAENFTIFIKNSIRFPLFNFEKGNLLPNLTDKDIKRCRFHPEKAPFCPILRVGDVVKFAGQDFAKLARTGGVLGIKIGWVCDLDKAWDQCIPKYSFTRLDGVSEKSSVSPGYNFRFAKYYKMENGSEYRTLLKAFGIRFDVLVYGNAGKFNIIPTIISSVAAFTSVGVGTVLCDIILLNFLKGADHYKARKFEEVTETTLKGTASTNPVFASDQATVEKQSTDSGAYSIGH

For the molecule `Cc1ccc(Cn2c(=O)n(C[C@H](C)C(=O)O)c(=O)[nH]/c2=N\c2ccc(Oc3ccc(F)cn3)cc2)cc1` [Compound I-040], the pIC50 at human P2X3 receptor is 7.74; on Rat P2X3 receptor it was 8.05. In addition, the solubility at 18 h in data set [1] is over 50 µM.

A word on the pIC50: it is −log10 of the IC50, conventionally taken in molar units.
